Reference: patent publication US9132280B2, “Use of fusarochromanone and its derivatives in the diagnosis and treatment of cancer and other diseases” (University of South Carolina, priority 2008, dated 2015)
“Also recorded” adds a separate entry of the source.

Key:
[1] = Experimental Log P, shaken-flask method (n-octanol/water adjusted to pH 10); assay type: physicochemical
Experimental: The shaken-flask method was also used to determine the experimental non-ionized partition coefficient for FC101. The same procedure used in the experimental determination of Log D for FC101 was used to determine the Log P with the exception that double-distilled water adjusted to pH 10 with 1 mM NaOH was used instead of the phosphate buffer. The log P was calculated using: Log10 P=Log10([FC101uncharged]oct/[FC101uncharged]wat) Imaging of Drug Uptake: […]

[2] = Experimental Log D, shaken-flask method (n-octanol/phosphate buffer); assay type: physicochemical; conditions: pH 7.6
Experimental: The shaken-flask method with n-octanol/phosphate buffer was used to determine the experimental ionized partition coefficient for FC101^10. Briefly, 50 ml each of n-octanol and 0.1 M phosphate buffer (at appropriate pH) were added to a 125 ml flask and placed on a mechanical shaker at room temperature for 24 hours to ensure saturation of each phase. The phases were then separated by centrifugation (Damon IEC HN-SII) at 2000 rpm for 30 min. After separation, aliquots (1 ml) were taken from each phase and were placed in separate vials. A small sample (45.5 μl) of a stock solution of 10 mM FC101 in water was added to the aqueous phase. […] The n-octanol was separated from the phosphate buffer and the absorbance at 385 nm (Shimadzu UV 1601) was then used to determine the concentration of FC101 in each phase. The partition coefficient was calculated using the following equation: Log10 D=([FC101charged+uncharged]oct[FC101charged+uncharged]buf) Experimental Log P for FC101
The shaken-flask method with n-octanol/phosphate buffer was used to determine the experimental ionized partition coefficient for FC101^10. […] The n-octanol was separated from the phosphate buffer and the absorbance at 385 nm (Shimadzu UV 1601) was then used to determine the concentration of FC101 in each phase. […]

[3] = Experimental physicochemical properties of FC101 (pKa, structural counts; Table 1)
B16 melanoma cells [4] = experiment: Confocal time-lapse fluorescence imaging of drug uptake (IOD) in B16 melanoma cells; assay type: cell-based, mouse; conditions: 400 nM
Experimental: (§1) Cells growing in the Matra-Tek dishes were maintained in an environmental chamber (37° C. and 5% CO2 atmosphere) mounted on the stage of a Zeiss inverted fluorescence microscope equipped with a CARV spinning disk confocal attachment. B16 cells were imaged using a Zeiss 63× oil NA=1.4 apochromatic objective, which gave an image field of 7265.15 μm^2. Cardiac Fibroblasts were imaged using a Zeiss 40× oil 1.0 NA apochromatic objective, which gave an image field of 18,006.85 μm^2. The images were captured using a CCD camera (Hamamatsu ORCA-ER) controlled by Kinetic Imaging Image Acquisition Software (AQM Advance-6) software. All images were recorded at a constant exposure (385 ms) using a DAPI (360/460) filter set, which isolates the natural fluorescence of the compound.
(§2) The cells were maintained in 1 ml of tissue culture medium and allowed equilibrate in the environmental chamber, before imaging of the selected group of cells was initiated. […] The rate of entry of the drug into the cells was determined by high-speed image collection (1 sec interval, 60 exposures per min). The equilibrium-concentration uptake of the drug was determined by slow-speed time-lapse imaging (10 sec intervals, 6 exposures per min) collected for a minimum of 30 minutes. In all experiments, images were recorded prior to addition of the drug to provide a negative control of any auto-fluorescence present in the cells. […]

[5] = system: normal cardiac fibroblasts; experiment: Confocal time-lapse fluorescence imaging of drug uptake (IOD) in normal cardiac fibroblasts; assay type: cell-based, rat; conditions: 400 nM
Experimental: as §1, §2
FC101 is a naturally fluorescent molecule and its movements, accumulation and distribution within living cells can be followed and analyzed in real-time or by time-lapse imaging. Cellular uptake of the drug was analyzed using the integrated morphometry subroutine of MetaMorph 6.1 (MDS Analytical Technologies). […] The drug fluorescence in the cytoplasm of the cells was thresholded as a region of interest and the integrated optical density (IOD) of the drug fluorescence was measured for all cells in the field at each time point. Values of image brightness, contrast and gamma function were kept constant for all image measurements of drug fluorescence. […]

B-16 melanoma cells = experiment: Cell growth inhibition, MTT assay; assay type: cell-based, mouse; conditions: B-16 melanoma cells compared to normal cardiac fibroblasts
Experimental: Cells were plated in a 96 well format containing 100 μl per well of appropriate media at a density of 2.5×10^4 cells/ml, and incubated at 37° C. with 5% CO2. After a 24 h attachment period, the cells were treated in sextuplicate with 100 μl per well of varying concentrations (0 to 10 μM) of FC101. Final volume in each well was 200 μl. Cell proliferation was then determined by the MTT assay after 48 hr incubation period^8. Briefly, 20 μl of a 5 mg/ml solution of MTT (dissolved in HBS) was added to each well. After 4.5 hr incubation at 37° C., the media were then removed and the insoluble mitochondrial-converted dye was solubilized in 100 μl of DMSO. The plates were placed on a shaker for 30 min to ensure that all of the dye was in solution and then read on a (Spectra Max plus 384, Molecular Devices) microplate reader at […]. The background absorbency at 640 nM was subtracted from the 570 nM value before calculating the GI50.

B16 melanoma cells [6] = experiment: Phototoxic effect under blue light exposure during time-lapse imaging, transformed cells; assay type: cell-based, mouse; conditions: transformed cells loaded with FC101
Experimental: as §1, §2

[7] = system: normal cardiac fibroblasts; experiment: Phototoxic effect under blue light exposure during time-lapse imaging, normal cells; assay type: cell-based, rat
Experimental: as §1, §2

For `CC1(C)CC(=O)c2c(ccc(C(=O)CC(N)CO)c2N)O1` (racemic) [FC101, 5-amino-2,2-dimethyl-6-[3′-(R,S)amino-4′-hydroxy-butan-1-one]-2,3-dihydro-4H-1-benzopyran-4-one], the “Log10 P” value [1] was 1.62, the “Log10 D7.6” value [2] was 0.38 and the “Hydrogen Bond Acceptors” value [3] was 6. For the same molecule, the “Hydrogen Bond Donors” value [3] was 5, the pKa ([3]; amino group on C-3 of the side chain) was 8.6 and the “Uptake of FC101 (intracellular fluorescence)” value (“Uptake of FC101” below) (B16 melanoma cells [4]; 10 sec after addition) was “immediately entered the cells”. For the same molecule, the “Uptake of FC101” value (B16 melanoma cells [4]; 20 min after addition) was “stable with no decrease in intracellular drug fluorescence”, the “Uptake of FC101” value ([5]; 10 sec after addition (less than a minute)) was “No incorporation; also recorded: no uptake of FC101” and the “Uptake of FC101” value ([5]; 4 min after addition) was “minimal increase in cytoplasmic fluorescence”. For the same molecule, the “Uptake of FC101” value ([5]; 20 min after addition) was “significant increase in intracellular fluorescence”, the “Inhibition of cell growth, tumorigenic versus normal cells” value (B-16 melanoma cells) was “preferential inhibition of tumorigenic B-16 melanoma cells” and the “Cell death (phototoxic effect) on blue light exposure” value (B16 melanoma cells [6]) was “undergo cell death”. The “Cell death (phototoxic effect) on blue light exposure” value [7] was “do not exhibit this effect; also recorded: ineffectiveness”.
